Legend:
[1] = molecular target: MMP-2 (Gelatinase A) (Homo sapiens, UniProt P08253); assay: biochemical
[2] = molecular target: T1, MMP-1 (Human Gingival Fibroblast Interstitial Collagenase) (Homo sapiens, UniProt P03956); assay: P218 quenched fluorescence assay, MMP-1; assay type: biochemical; conditions: read-out: Potency Ki vs. MMP-1
T1 construct: Jack Windsor (supplied, not bought)
T1 sequence (P03956 100-469): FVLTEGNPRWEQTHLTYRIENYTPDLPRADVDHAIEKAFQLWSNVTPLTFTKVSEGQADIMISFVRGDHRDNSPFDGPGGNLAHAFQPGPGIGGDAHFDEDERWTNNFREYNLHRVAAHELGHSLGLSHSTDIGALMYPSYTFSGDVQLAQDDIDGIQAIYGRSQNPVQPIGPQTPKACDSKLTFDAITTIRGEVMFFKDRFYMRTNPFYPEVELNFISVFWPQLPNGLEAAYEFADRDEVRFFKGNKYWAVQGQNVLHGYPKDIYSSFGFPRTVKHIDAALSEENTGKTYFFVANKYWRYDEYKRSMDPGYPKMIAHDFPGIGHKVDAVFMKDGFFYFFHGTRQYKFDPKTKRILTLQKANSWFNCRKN
Text: (§1) P218 Quenched Fluorescence Assay for MMP Inhibition:
(§2) This assay is adapted from the one described by Knight et al., FEBS Letters, 296, 263-266 (1992) for MMP-3 and a related substrate. The rate of hydrolysis of the synthetic substrate H-MCA-Pro-Lys-Pro-Leu-Ala-Leu-DPA-Ala-Arg-NH2 (P218) by the respective MMPs is monitored fluorometrically, using an excitation wavelength of 340 nm and an emission wavelength of 395 nm, in the presence or absence of the test compounds. The substrate is made up initially in 100% DMSO to a concentration of 1×10^−2 M, then diluted in assay buffer to a final concentration of 20 μM. […] The total assay volume in a 96 well microtitre plate is 150 μl, Cleavage of the substrate between the Leu-Ala residues allows the fluorescence of the MCA group to be detected on a fluorometer (Cytofluor II) following excitation at 340 nm and emission at 395 nm. Change in fluorescence is continually monitored for a 40 min period.
(§3) The Ki's are calculated using the method described by Williams and Morrison, Methods in Enzymology, 63, 437-467 (1979) to measure Ki apparent for tight binding inhibitors, and is summarised as follows: [I]0/(1−vi/v0)=Ki apparent ×vi/v0+[E]0 [I]0 and [E]0 are inhibitor and enzyme concentrations, and vi/v0 are reaction velocities with/without inhibitor. […]
(§4) IC50's are determined at each enzyme concentration using Xlfit software. […]

[3] = molecular target: T2, MMP-8 (Neutrophil Collagenase) (Homo sapiens, UniProt P22894); assay: P218 quenched fluorescence assay, MMP-8; assay type: biochemical
T2 construct: Active recombinant truncated form (met^80-gly^242) was obtained according to the protocol of Knauper; made in house
Text: as §1, §2, §3, §4

[4] = molecular target: MMP-13 (Human Collagenase 3) (Homo sapiens, UniProt P45452); assay: P218 quenched fluorescence assay, MMP-13 (human); assay type: biochemical
Text: as §1, §2, §3, §4

[5] = molecular target: T3, Rat MMP-13 (Rattus norvegicus, UniProt P23097); assay: P218 quenched fluorescence assay, MMP-13 (rat); assay type: biochemical; conditions: read-out: IC50 vs. MMP-13 (value marked *)
T3 construct: Rat pro-MMP-13 was obtained according to the protocol of Roswit, Arch; Biochem. Biophys
Text: as §1, §2, §3, §4

[6] = molecular target: T4, MMP-3 (Stromelysin) (Homo sapiens, UniProt P08254); assay: P218 quenched fluorescence assay, MMP-3; assay type: biochemical
T4 construct: Truncated Pro-stromelysin-257 is expressed in a soluble form in E. coli as described by Marcy et al; made in house; host or cells: E. coli
Text: as §1, §2, §3, §4

Sequence of MMP-2 (Gelatinase A) (P08253 110-660): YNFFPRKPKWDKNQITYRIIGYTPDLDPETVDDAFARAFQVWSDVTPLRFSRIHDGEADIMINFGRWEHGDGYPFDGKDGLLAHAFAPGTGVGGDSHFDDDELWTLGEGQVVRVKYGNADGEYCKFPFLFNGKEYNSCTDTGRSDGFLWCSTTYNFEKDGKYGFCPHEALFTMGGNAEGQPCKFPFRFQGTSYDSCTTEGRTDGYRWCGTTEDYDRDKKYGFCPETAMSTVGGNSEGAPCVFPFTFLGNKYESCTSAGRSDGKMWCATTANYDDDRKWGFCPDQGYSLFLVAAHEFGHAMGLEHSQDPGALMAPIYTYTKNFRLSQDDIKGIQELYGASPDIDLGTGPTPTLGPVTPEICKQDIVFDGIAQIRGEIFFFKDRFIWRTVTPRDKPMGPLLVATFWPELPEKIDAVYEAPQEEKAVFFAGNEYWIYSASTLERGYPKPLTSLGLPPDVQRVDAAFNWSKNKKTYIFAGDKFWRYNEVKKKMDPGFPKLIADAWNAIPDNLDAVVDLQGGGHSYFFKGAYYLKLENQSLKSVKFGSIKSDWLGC
T4 sequence (P08254 100-274): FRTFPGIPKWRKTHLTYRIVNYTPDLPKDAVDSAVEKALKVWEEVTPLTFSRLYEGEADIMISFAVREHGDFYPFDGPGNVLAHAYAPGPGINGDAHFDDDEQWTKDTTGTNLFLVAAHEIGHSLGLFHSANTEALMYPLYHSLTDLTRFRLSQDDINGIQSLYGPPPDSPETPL
T2 sequence (P22894 100-262): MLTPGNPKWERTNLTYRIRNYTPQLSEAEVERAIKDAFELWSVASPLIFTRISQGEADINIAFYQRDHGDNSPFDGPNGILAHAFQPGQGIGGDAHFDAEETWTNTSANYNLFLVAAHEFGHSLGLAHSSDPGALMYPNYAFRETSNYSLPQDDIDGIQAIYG

Row | SMILES | Ki [1] [nM] | Ki [2] [nM] | Ki ([3]; read-out: Potency Ki vs. MMP-8) [nM] | Ki ([4]; read-out: Potency Ki vs. MMP-13) [nM] | IC50 [5] [nM] | Ki ([6]; read-out: Potency Ki vs. MMP-3) [nM] | IC50 [1] [nM] | IC50 ([3]; read-out: IC50 vs. MMP-8 (value marked *)) [nM] | IC50 ([4]; read-out: IC50 vs. MMP-13 (value marked *)) [nM] | IC50 ([6]; read-out: IC50 vs. MMP-3 (value marked *)) [nM]
1 | O=C(CC(CCN1C(=O)c2ccccc2C1=O)C(=O)O)c1ccc(-c2ccc(Cl)cc2)cc1 (single isomer, unassigned; (+)) [Example 4, (+)-4-(4′-Chloro[1,1′-biphenyl]4-yl)-2-[2-(1,3-dioxo-1,3-dihydro-2H-isoindol-2-yl)ethyl]-4-oxobutanoic acid] | 0.5 | 639 | 7.5 | 5.6 | 296 | 3.7 | – | – | – | –
2 | CCOc1ccc(-c2ccc(C(=O)CC(CCN3C(=O)c4ccccc4C3=O)C(=O)O)cc2)cc1 (single isomer, unassigned; (+)) [Example 2, (+)-2-[2-(1,3-Dioxo-1,3-dihydro-2H-isoindol-2-yl)ethyl]-4-(4′-ethoxy[1,1′-biphenyl]-4-yl)-4-oxobutanoic acid] | – | > 3000 | – | – | 69 | – | 3.2 | 21.6 | 70 | 60
